From article PMC4117522, “Proteasome Inhibitors Alter Levels of Intracellular Peptides in HEK293T and SH-SY5Y Cells” (PLoS ONE, 2014)
Several values for one entry are separate records, joined by “and”; a condition that tells them apart may be missing. Identical values can stand only once. Residues, ends and D or L forms follow the SMILES beside them. *: point of attachment. Cbz = O=C(OCc1ccccc1)*

Tested on: HEK293T cells
Test: Quantitative peptidomics (TMAB isotopic labels, LC-MS/MS) of inhibitor-treated HEK293T cells
Type: cell-based, human
Experimental: HEK293T and SH-SY5Y cells were grown to 80–90% confluence in DMEM and RPMI supplemented with 10% fetal bovine serum and penicillin/streptomycin. A single plate of cells (150 mm×25 mm) was used for each group. At the start of the experiment, media were removed from the plates and cells were washed with DPBS (138 mM NaCl, 8.06 mM Na2HPO4, 2.67 mM KCl, 1.47 mM KH2PO4, 0.9 mM CaCl2 and 0.49 mM MgCl2). This was followed by addition of serum-free media containing the proteasome or aminopeptidase inhibitors, or 0.05% DMSO as a control for the inhibitors that were soluble in DMSO. Each experiment consisted of two control groups and two or three replicate groups of cells treated with one of the inhibitors. The cells were incubated at 37°C for 20 minutes, following which media containing the inhibitor was removed, cells were washed with DPBS, detached from the plate by scraping into DPBS (without trypsin), and centrifuged at 800×g for 5 min. The wash buffer was supplemented with the appropriate inhibitor at the same concentration as used for the treatment, thereby ensuring that the changes induced in peptide levels were not reversed during harvesting of cells due to possible dissociation of the reversible inhibitors. The wash time (including centrifugation) was 15 minutes, for a total treatment time of 35 minutes. After centrifugation, the cell pellet was resuspended in 1 ml of 80°C water and incubated in an 80°C water bath for 20 minutes to inactivate proteases. The mixture was again centrifuged (13,000×g, 30 min, 4°C) and was stored at −80°C overnight. For peptide extraction, the samples were thawed and centrifuged again. The lysate was subsequently cooled on ice and acidified with HCl to a final concentration of 10 mM. After 15 min incubation on ice, the lysate was centrifuged at 13,000×g for 30 min at 4°C. To the supernatant, 250 µL of dibasic sodium phosphate (0.4 M, pH 9.5) was added and the mixture was stored at −80°C until labeling.
The labeling protocol has been earlier described in detail. Each group within an experiment (control/treated) was labeled with a different isotopic tag. The TMAB-NHS labels were dissolved in DMSO to a concentration of 400 µg/µL and 15 mg of label was used per 150 mm plate of cells. […] At the beginning, the pH of the peptide extract was adjusted to 9.5 with 1 M NaOH. Labeling was performed over 8 rounds; 4.69 µL of the label was added to the extract every 20 min. The pH was measured between each round and if necessary, brought back to 9.5 for the first five rounds. For rounds 6–8, the pH was not adjusted after the addition of the TMAB-NHS reagent. After the final round of label addition, the pH was adjusted to 9.5 again and the extracts were incubated at room temperature for 90 min. Thereafter, 30 µL of 2.5 M glycine was added to quench any unreacted label. Following 40 min incubation at room temperature, the labeled extracts for a single experiment were pooled and filtered through Amicon Ultracel-10 K units. It is important to ensure that only N-terminal amines and lysine side-chain amines of peptides are TMAB-labeled and not tyrosines. To hydrolyze any labeled tyrosine, 30 µL of a 2 M solution of hydroxylamine hydrochloride (pH 3.7) was added over three rounds to the pooled and filtered sample. The pH was measured after the addition of hydroxylamine and adjusted to 9.0 with 1 M NaOH. The samples were desalted through PepClean C-18 spin columns (Thermo Scientific, Rockford, IL, USA) by following manufacturer’s instructions. Peptides were eluted using 160 µL of 0.5% TFA and 70% acetonitrile, frozen at −80°C and then lyophilized in a vacuum centrifuge and stored at −80°C until analysis by mass spectrometry.
The LC-MS/MS experiments were performed on a Synapt G2 mass spectrometer coupled to a NanoAcquity capillary liquid chromatography system (Waters Co., Milford, MA, USA).

CC(=O)N[C@@H](CSC(=O)[C@]1([C@@H](O)C(C)C)NC(=O)[C@H](C)[C@@H]1O)C(=O)O [Lactacys]
Relative Levels of peptide AKADGIVSKNF (RPS21) (1 uM, 35', HEK): 0.16 and 0.15 | Relative Levels of peptide Ac-ASKRALVIL (PARK7) (1 uM, 35', HEK): < 0.20 and 0.26 | Relative Levels of peptide Ac-ASKRALVILA (PARK7) (1 uM, 35', HEK): 0.29 and 0.31 | Relative Levels of peptide Ac-MDTSRVQPIKL (RPS28) (1 uM, 35', HEK): 0.31 and 0.28 | Relative Levels of peptide Ac-MDTSRVQPIKLAR (RPS28) (1 uM, 35', HEK): 0.52 and 0.70 | Relative Levels of peptide Ac-SSEEGKLFVGGLNF (RBM3) (1 uM, 35', HEK): 0.39 and 0.30 | Relative Levels of peptide Ac-SYGRPPPDVEGMTSLKVDNL (SRSF2) (1 uM, 35', HEK): 0.40 and 0.50 | Relative Levels of peptide GAIRDIDL (SRSF1) (1 uM, 35', HEK): < 0.20 | Relative Levels of peptide GFGDLKSPAGLQVL (EEF1B2) (1 uM, 35', HEK): 0.19 and 0.14 | Relative Levels of peptide GVQVETISPGDGRTFPKRGQT (FKBP1A) (1 uM, 35', HEK): 0.31 and 0.26 | Relative Levels of peptide KHTGPGILSM (PPIA) (1 uM, 35', HEK): 0.25 and 0.22

CC[C@H](C)[C@H](NC(=O)[C@H]([C@@H](C)CC)N(C)C(C)=O)C(=O)N[C@H](C(=O)N[C@@H](CC(C)C)C(=O)[C@@]1(C)CO1)[C@@H](C)O [Epox.]
Relative Levels of peptide AAETVTKGGIMLPEKSQGKVLQA (HSPE1) (0.2 uM, 1h, HEK): < 0.20 | Relative Levels of peptide ADKVPKTAENFRAL (PPIA) (0.2 uM, 1h, HEK): < 0.20 | Relative Levels of peptide AGAAVDELGKVLTPTQV (PEBP1) (0.2 uM, 1h, HEK): < 0.20 | Relative Levels of peptide AKADGIVSKNF (RPS21) (0.2 uM, 1h, HEK): < 0.20 | Relative Levels of peptide APIKVGDAIPAVEVF (PRDX5) (0.2 uM, 1h, HEK): < 0.20 | Relative Levels of peptide APPTAYIDFARQK (TPI1) (0.2 uM, 1h, HEK): 0.58 and 0.64 | Relative Levels of peptide ASQPDVDGFLVGGASLKPEFVDIINA (TPI1) (0.2 uM, 1h, HEK): < 0.20 | Relative Levels of peptide ASQPDVDGFLVGGASLKPEFVDIINAKQ (TPI1) (0.2 uM, 1h, HEK): 1.17 and 1.09 | Relative Levels of peptide AVDGEPLGRVSF (PPIA) (0.2 uM, 1h, HEK): < 0.20 | Relative Levels of peptide Ac-AAPVDLELKKAFTEL (PFDN1) (0.2 uM, 1h, HEK): < 0.20 | Relative Levels of peptide Ac-ANLERTFIAIKPDGV (NME2) (0.2 uM, 1h, HEK): < 0.20 | Relative Levels of peptide Ac-ASKRALVIL (PARK7) (0.2 uM, 1h, HEK): < 0.20 | Relative Levels of peptide Ac-ASKRALVILA (PARK7) (0.2 uM, 1h, HEK): < 0.20 | Relative Levels of peptide Ac-MDTSRVQPIKL (RPS28) (0.2 uM, 1h, HEK): < 0.20 | Relative Levels of peptide Ac-MDTSRVQPIKLAR (RPS28) (0.2 uM, 1h, HEK): 0.95 | Relative Levels of peptide Ac-SSEEGKLFVGGLNF (RBM3) (0.2 uM, 1h, HEK): < 0.20 | Relative Levels of peptide Ac-SYGRPPPDVEGMTSLKVDNL (SRSF2) (0.2 uM, 1h, HEK): 0.23 and 0.32 | Relative Levels of peptide Ac-[…] (COX6B1) (0.2 uM, 1h, HEK): < 0.20 | Relative Levels of peptide EDENFILKHTGPGILSM (PPIA) (0.2 uM, 1h, HEK): < 0.20 | Relative Levels of peptide GAIRDIDL (SRSF1) (0.2 uM, 1h, HEK): 0.29 and 0.33 | Relative Levels of peptide GFGDLKSPAGLQVL (EEF1B2) (0.2 uM, 1h, HEK): < 0.20 | Relative Levels of peptide GISTPEELGLDKV (COX5A) (0.2 uM, 1h, HEK): < 0.20 | Relative Levels of peptide GVQVETISPGDGRTFPKRGQT (FKBP1A) (0.2 uM, 1h, HEK): 0.72 and 0.45 | Relative Levels of peptide KHTGPGILSM (PPIA) (0.2 uM, 1h, HEK): < 0.20 | Relative Levels of peptide PGIVELPTLEEL (NDUFA8) (0.2 uM, 1h, HEK): < 0.20 | Relative Levels of peptide SAMTEEAAVAIKAMAK (EIF5A) (0.2 uM, 1h, HEK): 0.36 and 0.21 | Relative Levels of peptide SLGELIGTLNA (TPI1) (0.2 uM, 1h, HEK): 0.29 and < 0.20 | Relative Levels of peptide VNPTVFFDI (PPIA) (0.2 uM, 1h, HEK): < 0.20 | Relative Levels of peptide AAETVTKGGIMLPEKSQGKVLQA (HSPE1) (2 uM, 1h, HEK): < 0.20 | Relative Levels of peptide ADKVPKTAENFRAL (PPIA) (2 uM, 1h, HEK): < 0.20 | Relative Levels of peptide AGAAVDELGKVLTPTQV (PEBP1) (2 uM, 1h, HEK): < 0.20 | Relative Levels of peptide AKADGIVSKNF (RPS21) (2 uM, 1h, HEK): < 0.20 | Relative Levels of peptide APIKVGDAIPAVEVF (PRDX5) (2 uM, 1h, HEK): < 0.20 | Relative Levels of peptide ASQPDVDGFLVGGASLKPEFVDIINA (TPI1) (2 uM, 1h, HEK): < 0.20 | Relative Levels of peptide ASQPDVDGFLVGGASLKPEFVDIINAKQ (TPI1) (2 uM, 1h, HEK): < 0.20 | Relative Levels of peptide AVDGEPLGRVSF (PPIA) (2 uM, 1h, HEK): < 0.20 | Relative Levels of peptide Ac-AAPVDLELKKAFTEL (PFDN1) (2 uM, 1h, HEK): < 0.20 | Relative Levels of peptide Ac-AEEGIAAGGVMDVNTALQEVLKT (RPS12) (2 uM, 1h, HEK): 0.61 and 0.42 | Relative Levels of peptide Ac-ANLERTFIAIKPDGV (NME2) (2 uM, 1h, HEK): < 0.20 | Relative Levels of peptide Ac-ASKRALVIL (PARK7) (2 uM, 1h, HEK): < 0.20 | Relative Levels of peptide Ac-ASKRALVILA (PARK7) (2 uM, 1h, HEK): < 0.20 | Relative Levels of peptide Ac-MDTSRVQPIKL (RPS28) (2 uM, 1h, HEK): < 0.20 | Relative Levels of peptide Ac-MDTSRVQPIKLAR (RPS28) (2 uM, 1h, HEK): 0.64 and 0.94 | Relative Levels of peptide Ac-MDTSRVQPIKLARVTKV (RPS28) (2 uM, 1h, HEK): < 0.20 | Relative Levels of peptide Ac-SSEEGKLFVGGLNF (RBM3) (2 uM, 1h, HEK): < 0.20 | Relative Levels of peptide Ac-SYGRPPPDVEGMTSLKVDNL (SRSF2) (2 uM, 1h, HEK): < 0.20 | Relative Levels of peptide EDENFILKHTGPGILSM (PPIA) (2 uM, 1h, HEK): < 0.20 | Relative Levels of peptide GESDDSILRLAKADGIVSKNF (RPS21) (2 uM, 1h, HEK): < 0.20 | Relative Levels of peptide GFGDLKSPAGLQVL (EEF1B2) (2 uM, 1h, HEK): 0.54 and 0.68 | Relative Levels of peptide GISTPEELGLDKV (COX5A) (2 uM, 1h, HEK): 0.38 and 0.45 | Relative Levels of peptide KHTGPGILSM (PPIA) (2 uM, 1h, HEK): < 0.20 | Relative Levels of peptide PGIVELPTLEEL (NDUFA8) (2 uM, 1h, HEK): < 0.20 | Relative Levels of peptide SAMTEEAAVAIKAMAK (EIF5A) (2 uM, 1h, HEK): < 0.20 | Relative Levels of peptide SLGELIGTLNA (TPI1) (2 uM, 1h, HEK): 0.52 and 0.30 | Relative Levels of peptide VNPTVFFDI (PPIA) (2 uM, 1h, HEK): < 0.20

CC(C)C[C@@H](C=O)NC(=O)[C@H](CC(C)C)NC(=O)[C@H](CC(C)C)NC(=O)OCc1ccccc1 [MG132, reference compound] (Cbz-Leu-Leu-Leu-aldehyde)
change in levels of intracellular peptides (peptidome) (HEK293T cells, 35 min, 2.5 µM MG132, 1 µM other inhibitors): the majority of peptides was greatly decreased
